Holding throughout (assay type): cell-based
Assay [1] has as its system IL-2 secretion from T cells in human whole blood. As to conditions: read-out: WB (IL-2) IC50 (nM, Avg).
Another assay addresses hKv1.3 (Homo sapiens, UniProt P22001). The assay can be described thus: cell-based. As to conditions: Kv1.3 (IWQ) IC50 (nM, Avg).
Assay [2] has as its system IFN-g secretion from T cells in human whole blood. As to conditions: read-out: WB (IFNg) IC50 (nM, Avg).

Structures are written as SMILES.

The source of these data is patent publication US20120121591A1 (priority 2009, published 2012).

For orientation: IC50 means the midpoint of a concentration-inhibition curve.

hKv1.3, sequence (P22001 whole entry): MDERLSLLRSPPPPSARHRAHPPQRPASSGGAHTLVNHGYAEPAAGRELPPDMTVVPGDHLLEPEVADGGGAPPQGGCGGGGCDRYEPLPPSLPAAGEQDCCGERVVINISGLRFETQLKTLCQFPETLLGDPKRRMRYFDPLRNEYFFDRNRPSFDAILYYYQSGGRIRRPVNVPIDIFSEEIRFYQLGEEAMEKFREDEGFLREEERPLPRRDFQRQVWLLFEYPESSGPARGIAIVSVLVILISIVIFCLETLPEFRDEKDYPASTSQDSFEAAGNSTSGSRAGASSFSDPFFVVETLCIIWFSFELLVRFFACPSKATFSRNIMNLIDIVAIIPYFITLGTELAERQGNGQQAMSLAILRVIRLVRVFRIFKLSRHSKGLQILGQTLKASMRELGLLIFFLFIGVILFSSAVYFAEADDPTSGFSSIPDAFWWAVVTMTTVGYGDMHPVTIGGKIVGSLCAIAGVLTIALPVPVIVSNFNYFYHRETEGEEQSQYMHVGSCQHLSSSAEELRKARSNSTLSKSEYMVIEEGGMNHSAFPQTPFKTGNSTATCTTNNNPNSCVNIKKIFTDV

Take `CC[C@H](C)[C@@H]1NC(=O)[C@@H](NC(=O)[C@H](CO)NC(=O)[C@@H](N)CCCNC(=N)N)CSSC[C@@H](C(=O)O)NC(=O)[C@H]([C@@H](C)O)NC(=O)CNC(=O)[C@@H]2CSSC[C@@H]3NC(=O)[C@H](CCC(N)=O)NC(=O)[C@H](Cc4ccccc4)NC(=O)[C@H](C)NC(=O)[C@H]([C@@H](C)O)NC(=O)[C@H](CSSC[C@H](NC(=O)[C@H](CCCCN)NC(=O)[C@H](CO)NC(=O)[C@H](CC(C)C)NC(=O)[C@H](CCCNC(=N)N)NC(=O)[C@H](Cc4ccc(O)cc4)NC(=O)[C@H](CCCCN)NC(=O)[C@H](CCSC)NC(=O)[C@H](CO)NC(=O)[C@H](Cc4c[nH]cn4)NC(=O)[C@H](CCCCN)NC3=O)C(=O)N[C@@H](CCCNC(=N)N)C(=O)N[C@@H](CCCCN)C(=O)N[C@@H]([C@@H](C)O)C(=O)N2)NC(=O)[C@H](CCCNC(=N)N)NC(=O)[C@H](CO)NC(=O)[C@H](CCCCN)NC(=O)[C@@H]2CCCN2C(=O)[C@H]([C@@H](C)CC)NC(=O)[C@H]([C@@H](C)O)NC(=O)[C@H](CC(=O)O)NC1=O` [[Lys27]ShK]: the IC50 in assay [1] is 3.48 nM; against hKv1.3, 0.928 nM; in assay [2], 11.8 nM.
On the same counts, the results for `CC[C@H](C)[C@@H]1NC(=O)[C@@H](NC(=O)[C@H](CO)NC(=O)[C@@H](N)CCCNC(=N)N)CSSC[C@@H](C(=O)O)NC(=O)[C@H]([C@@H](C)O)NC(=O)CNC(=O)[C@@H]2CSSC[C@@H]3NC(=O)[C@H](CCC(N)=O)NC(=O)[C@H](Cc4ccccc4)NC(=O)[C@H](C)NC(=O)[C@H]([C@@H](C)O)NC(=O)[C@H](CSSC[C@H](NC(=O)[C@H](Cc4ccccc4)NC(=O)[C@H](CO)NC(=O)[C@H](CC(C)C)NC(=O)[C@H](CCCNC(=N)N)NC(=O)[C@H](Cc4ccc(O)cc4)NC(=O)[C@H](CCCCN)NC(=O)[C@H](CCSC)NC(=O)[C@H](CO)NC(=O)[C@H](Cc4c[nH]cn4)NC(=O)[C@H](CCCCN)NC3=O)C(=O)N[C@@H](CCCCN)C(=O)N[C@@H](CCCCN)C(=O)N[C@@H]([C@@H](C)O)C(=O)N2)NC(=O)[C@H](CCCNC(=N)N)NC(=O)[C@H](CO)NC(=O)[C@H](CCCCN)NC(=O)[C@@H]2CCCN2C(=O)[C@H]([C@@H](C)CC)NC(=O)[C@H]([C@@H](C)O)NC(=O)[C@H](CC(=O)O)NC1=O` [[Lys29]ShK] are 0.04 nM, 0.158 nM and 0.071 nM.
Taken in the same sequence, the figures for `CC[C@H](C)[C@@H]1NC(=O)[C@@H](NC(=O)[C@H](CO)NC(=O)[C@@H](N)CCCNC(=N)N)CSSC[C@@H](C(=O)O)NC(=O)[C@H]([C@@H](C)O)NC(=O)CNC(=O)[C@@H]2CSSC[C@@H]3NC(=O)[C@H](CCC(N)=O)NC(=O)[C@H](Cc4ccccc4)NC(=O)[C@H](C)NC(=O)[C@H]([C@@H](C)O)NC(=O)[C@H](CSSC[C@H](NC(=O)[C@H](Cc4ccccc4)NC(=O)[C@H](CO)NC(=O)[C@H](CC(C)C)NC(=O)[C@H](CCCNC(=N)N)NC(=O)[C@H](Cc4ccc(O)cc4)NC(=O)[C@H](CCCCN)NC(=O)[C@H](CCSC)NC(=O)[C@H](CO)NC(=O)[C@H](Cc4c[nH]cn4)NC(=O)[C@H](CCCCN)NC3=O)C(=O)N[C@@H](CCCNC(=N)N)C(=O)N[C@@H](CCCCN)C(=O)N[C@@H](CCCCN)C(=O)N2)NC(=O)[C@H](CCCNC(=N)N)NC(=O)[C@H](CO)NC(=O)[C@H](CCCCN)NC(=O)[C@@H]2CCCN2C(=O)[C@H]([C@@H](C)CC)NC(=O)[C@H]([C@@H](C)O)NC(=O)[C@H](CC(=O)O)NC1=O` [[Lys31]ShK] were 5.98 nM, 1.42 nM and 27.9 nM.
